This is an account of results in ChEMBL document CHEMBL1914304 (J Med Chem, 2011).

One data set deals with Raji. Kind of data set: Cytotoxicity against human Raji cells after 72 hrs by luminescence assay. Format: cell-based.
For a further data set, the system named is HEK293. Kind of data set: Cytotoxicity against human HEK293 cells after 72 hrs by luminescence assay. Format: cell-based. Particulars: hek293, 72 h.
The subject of the next data set is BJ. Kind of data set: Cytotoxicity against human BJ cells after 72 hrs by luminescence assay. Format: cell-based.
The nature of data set [1]: Selectivity ratio of EC50 for human HepG2 cells to EC50 for Plasmodium falciparum.
In the next data set the test system is HepG2. Kind of data set: Cytotoxicity against human HepG2 cells after 72 hrs by luminescence assay. Particulars: hepg2, 72 h. Format: cell-based.

In the case of `Cl.O=C(/C=C/c1ccccc1)c1ccccc1O`, the Activity entry in the data set on Raji, in the data set on HEK293, in the data set on BJ and in the data set on HepG2 was “Non-toxic” throughout. Moreover, the selectivity ratio in data set [1] is more than 10.

Consider `Cl.O=C(/C=C/c1ccccc1)c1cc(F)ccc1O`, for which the Activity entry with Raji, in the data set on HEK293, in the data set on BJ and in the data set with HepG2 was “Non-toxic” in each case. For the same molecule, the selectivity ratio in data set [1] was more than 10.

Consider `Cl.O=C(/C=C/c1ccc(F)cc1)c1ccccc1O`, for which the Activity result in the data set with Raji, in the data set on HEK293, in the data set on BJ and in the data set on HepG2 was “Non-toxic” each time. The selectivity ratio in data set [1] is more than 10.

Consider `Cl.O=C(/C=C/c1ccc(F)cc1)c1cc(F)ccc1O`, for which the Activity entry in the data set on Raji, in the data set with HEK293, in the data set on BJ and in the data set on HepG2 was “Non-toxic” each time. For the same molecule, the selectivity ratio in data set [1] is more than 10.

Regarding `Cl.O=C(CCc1ccccc1)c1ccccc1O`, the Activity result in the data set on Raji, in the data set on HEK293, with BJ and in the data set on HepG2 was “Non-toxic” throughout. Besides, the selectivity ratio in data set [1] was more than 10.

Turning to `Cl.O=C(CCc1ccccc1)c1cc(F)ccc1O`, the Activity entry with Raji, in the data set with HEK293, in the data set with BJ and in the data set with HepG2 was “Non-toxic” throughout. Further, the selectivity ratio in data set [1] was more than 10.

Regarding `Cl.O=C(CCc1ccc(F)cc1)c1ccccc1O`, the Activity result with Raji, in the data set with HEK293, in the data set on BJ and in the data set with HepG2 was “Non-toxic” in each case. Also, in data set [1], the selectivity ratio was more than 10.

Take `Cl.O=C(CCc1ccc(F)cc1)c1cc(F)ccc1O`: the Activity entry in the data set with Raji, in the data set on HEK293, with BJ and in the data set on HepG2 was “Non-toxic” each time. For the same molecule, the selectivity ratio in data set [1] is more than 10.

On to `Cl.O=C(CCc1ccc(F)cc1)c1cc(F)ccc1OCC(O)CN1CCN(c2ccc(Cl)c(Cl)c2)CC1` (racemic), for which the Activity result in the data set on Raji, in the data set on HEK293, in the data set on BJ and in the data set with HepG2 was “Non-toxic” in each case. In addition, in data set [1], the selectivity ratio is more than 10.

`Cl.O=C(CCc1ccc(F)cc1)c1cc(F)ccc1OCC(O)CN1CCN(c2ccccc2F)CC1` (racemic): the Activity entry in the data set on Raji, in the data set on HEK293, in the data set on BJ and in the data set with HepG2 was “Non-toxic” throughout. Besides, the selectivity ratio in data set [1] was more than 10.

With `Cl.O=C(CCc1ccc(F)cc1)c1cc(F)ccc1OCC(O)CN1CCN(c2ccc(F)cc2)CC1` (racemic), the Activity result in the data set on Raji, in the data set on HEK293, with BJ and with HepG2 was “Non-toxic” each time. Further, in data set [1], the selectivity ratio was more than 10.

For the molecule `Cl.O=C(CCc1ccc(F)cc1)c1cc(F)ccc1OCC(O)CN1CCN(c2ccc([N+](=O)[O-])cc2)CC1` (racemic), the Activity result in the data set on Raji, in the data set on HEK293, with BJ and in the data set on HepG2 was “Non-toxic” in each case. Further, the selectivity ratio in data set [1] is more than 10.

For the molecule `Cl.Nc1ccc(N2CCN(CC(O)COc3ccc(F)cc3C(=O)CCc3ccc(F)cc3)CC2)cc1` (racemic), the Activity entry in the data set on Raji, with HEK293, in the data set with BJ and in the data set with HepG2 was “Non-toxic” each time. Also, in data set [1], the selectivity ratio was more than 10.

Regarding `Cl.O=C(CCc1ccc(F)cc1)c1cc(F)ccc1OCC(O)CN1CCN(c2ccc(O)cc2)CC1` (racemic), the Activity result with Raji, in the data set on HEK293, in the data set on BJ and in the data set on HepG2 was “Non-toxic” in each case. The selectivity ratio in data set [1] was more than 10.

`Cl.O=C(CCc1ccc(F)cc1)c1cc(F)ccc1OCC(O)CN1CCN(c2ccc(C(F)(F)F)cc2)CC1` (racemic): the Activity entry in the data set on Raji, in the data set on HEK293, in the data set on BJ and in the data set on HepG2 was “Non-toxic” in each case. Besides, in data set [1], the selectivity ratio is more than 10.

Regarding `Cl.O=C(CCc1ccc(F)cc1)c1cc(F)ccc1OCC(O)CN1CCN(C(=O)c2ccccc2)CC1` (racemic), the Activity result in the data set with Raji, in the data set with HEK293, with BJ and in the data set with HepG2 was “Non-toxic” in each case. In addition, the selectivity ratio in data set [1] was more than 10.

Regarding `Cl.O=C(CCc1ccc(F)cc1)c1cc(F)ccc1OCC(O)CN1CCN(C(c2ccccc2)c2ccccc2)CC1` (racemic), the Activity entry with Raji, in the data set on HEK293, with BJ and in the data set with HepG2 was “Non-toxic” each time. Also, the selectivity ratio in data set [1] was more than 10.

On to `CN1CCN(CC(O)COc2ccc(F)cc2C(=O)CCc2ccc(F)cc2)CC1.Cl` (racemic), for which the Activity entry in the data set on Raji, in the data set with HEK293, in the data set with BJ and in the data set on HepG2 was “Non-toxic” in each case. The selectivity ratio in data set [1] was more than 10.

For `CCN1CCN(CC(O)COc2ccc(F)cc2C(=O)CCc2ccc(F)cc2)CC1.Cl` (racemic), the Activity entry in the data set on Raji, in the data set on HEK293, with BJ and in the data set on HepG2 was “Non-toxic” throughout. Besides, in data set [1], the selectivity ratio is more than 10.

Take `Cl.O=C(CCc1ccc(F)cc1)c1cc(F)ccc1OCC(O)CN1CCOCC1` (racemic): the Activity result with Raji, with HEK293, with BJ and in the data set with HepG2 was “Non-toxic” in each case. Besides, the selectivity ratio in data set [1] is more than 10.

For the molecule `Cl.O=C(CCc1ccccc1)c1ccccc1OCC(O)Cn1ccc2ccccc21` (racemic), the Activity result with Raji, in the data set on HEK293, in the data set with BJ and in the data set on HepG2 was “Non-toxic” in each case. For the same molecule, in data set [1], the selectivity ratio was more than 10.

Turning to `CC(C)c1nccn1CC(O)COc1ccccc1C(=O)CCc1ccccc1.Cl` (racemic), the Activity result in the data set with Raji, with HEK293, in the data set on BJ and in the data set on HepG2 was “Non-toxic” throughout. Further, in data set [1], the selectivity ratio is more than 10.

Regarding `Cl.O=C(CCc1ccccc1)c1ccccc1OCC(O)CC1CCCC1` (racemic), the Activity result in the data set on Raji, in the data set with HEK293, in the data set with BJ and in the data set on HepG2 was “Non-toxic” throughout. In data set [1], the selectivity ratio is more than 10.

Take `Cl.O=C(CCc1ccc(F)cc1)c1ccccc1OCC(O)Cn1ccc2ccccc21` (racemic): the Activity entry in the data set with Raji, in the data set on HEK293, in the data set on BJ and in the data set with HepG2 was “Non-toxic” each time. Moreover, the selectivity ratio in data set [1] was more than 10.

For the molecule `CC(C)c1nccn1CC(O)COc1ccccc1C(=O)CCc1ccc(F)cc1.Cl` (racemic), the Activity entry with Raji, with HEK293, in the data set on BJ and in the data set on HepG2 was “Non-toxic” each time. Moreover, the selectivity ratio in data set [1] is more than 10.

As to `Cl.O=C(CCc1ccc(F)cc1)c1ccccc1OCC(O)CC1CCCC1` (racemic), the Activity result in the data set with Raji, in the data set with HEK293, with BJ and in the data set on HepG2 was “Non-toxic” in each case. The selectivity ratio in data set [1] is more than 10.

On to `Cl.O=C(CCc1ccccc1)c1cc(F)ccc1OCC(O)Cn1ccc2ccccc21` (racemic), for which the Activity result in the data set with Raji, in the data set on HEK293, with BJ and in the data set with HepG2 was “Non-toxic” throughout. Moreover, the selectivity ratio in data set [1] is more than 10.

With `CC(C)c1nccn1CC(O)COc1ccc(F)cc1C(=O)CCc1ccccc1.Cl` (racemic), the Activity entry in the data set on Raji, with HEK293, in the data set on BJ and in the data set on HepG2 was “Non-toxic” throughout. The selectivity ratio in data set [1] was more than 10.

As to `Cl.O=C(CCc1ccccc1)c1cc(F)ccc1OCC(O)CC1CCCC1` (racemic), the Activity result with Raji, with HEK293, in the data set with BJ and in the data set on HepG2 was “Non-toxic” in each case. The selectivity ratio in data set [1] is more than 10.

With `Cl.O=C(CCc1ccc(F)cc1)c1cc(F)ccc1OCC(O)Cn1ccc2ccccc21` (racemic), the Activity result in the data set on Raji, with HEK293, in the data set with BJ and in the data set on HepG2 was “Non-toxic” throughout. In addition, the selectivity ratio in data set [1] is more than 10.

Regarding `CC(C)c1nccn1CC(O)COc1ccc(F)cc1C(=O)CCc1ccc(F)cc1.Cl` (racemic), the Activity entry with Raji, in the data set on HEK293, in the data set on BJ and in the data set with HepG2 was “Non-toxic” throughout. In data set [1], the selectivity ratio is more than 10.

On to `Cl.O=C(CCc1ccc(F)cc1)c1cc(F)ccc1OCC(O)CC1CCCC1` (racemic), for which the Activity result with Raji, with HEK293, in the data set with BJ and in the data set on HepG2 was “Non-toxic” in each case. In data set [1], the selectivity ratio is more than 10.
